This is an account of results in US20060025419A1, “Imidazoquinoxaline compound for the treatment of melanoma” (priority 2004, published 2006).

The subject of experiment [1] is Normal human epidermal melanocytes (NHEM). The experiment is described as follows: Growth of cultured cells, hemocytometer counting. It is filed as cell-based. The text has this:
A super-repressor form of human IκBα (S32, 36A) resistant to degradation and mutant IKKβ […]) was kindly provided by Javier […] Cancer Center, University of California-San Diego School of Medicine). Antibodies to IKKα (H-744), IKKβ (H-470), Bcl-2, Bax and AIF were purchased from Santa Cruz Biotechnology, Inc. (Santa Cruz, Calif.). […] N-acetyl-L-cysteine (NAC) and Tiron were from Sigma-Aldrich (St. Louis, Mo.). Normal human epidermal melanocytes (NHEM) were provided by the Skin Disease Research Center in Vanderbilt University School of Medicine. NHEM were cultured in 154 medium with 1× human melanocyte growth supplement (Cascade Biologicals, Inc.). The melanoma cell lines, Sk Mel5, A375 and Hs294T, originally established from human metastatic melanoma, were purchased from American Type Culture Collection and cultured in DMEM: Ham's F-12 medium containing 10% FBS, 2 mM of L-glutamine, 100 μM of MEM Non-Essential Amino Acids (Life Technologies, Inc.), and 1 mM of sodium pyruvate (Sigma Chemical Co.). Aberrant activation of NF-κB has been associated with carcinogenesis, and constitutively high IKK activity has been detected in many tumor types, including human melanoma (Yang & Richmond, 2001; […] et al., 2003; […] et al., 2003). IKK is a major regulator of the NF-κB pathway and therefore represents an attractive therapeutic target in advanced cancers. […] After three days of culture, the cell numbers were determined by hemocytometer counting (Table 1).

Another experiment deals with NF-κB/p65. As to the kind of experiment: Time-lapse microscopy of GFP-p65 translocation. It counts as cell-based, human. To be noted: SK-Mel-5, 10 μM, 7 h observation.

Procedure for NF-κB/p65: SK-Mel-5 cells (2×10^5 ) were cultured in 25 cm^2 culture flasks (Corning Inc., Corning, N.Y.) and transfected with 0.5 μg of GFP-p65 expression vector DNA for 14 h. […] The expression and localization of EGFP-p65 in live cells was recorded using time-lapse video microscopy (FIGS. 3A). The cytosolic and nuclear green fluorescent density was quantified by the Openlab software program (FIGS. 3B).
To test this possibility, SK-Mel-5 cells were transfected with a GFP-p65 expression vector to monitor the nuclear translocation in living cells. […] Time-lapse video microscopy was used to follow the localization of GFP-p65 in live cells. Images were captured at one-hour intervals over a 7 h observation period. The cytosol versus nuclear green fluorescent density was quantified by the Openlab software program.

Regarding `Cc1ccc2nc(NCCN)c3ncc(C)n3c2c1.Cl` [BMS-345541, 4(2′-aminoethyl)amino-1,8-dimethylimidazo(1,2-a)quinoxaline], the results for the “cell number after three days of culture” value in experiment [1] (0.1 μM), in experiment [1] (1.0 μM) and in experiment [1] (10 μM) were 4.8 ± 0.28, 4.9 ± 0.38 and 0.18 ± 0.04, respectively. Besides, the GFP-p65 localization entry with NF-κB/p65 was “consistently retained GFP-p65 in the cytoplasm”.
